Results from ChEMBL document CHEMBL6092147, “Design of inhibitors of SARS-CoV-2 papain-like protease deriving from GRL0617: Structure-activity relationships” (Bioorg Med Chem, 2024).

What follows are molecules tested against T1, Replicase polyprotein 1ab (Severe acute respiratory syndrome coronavirus 2, UniProt P0DTD1) (assay: Inhibition of SARS-CoV-2 papain-like protease).
`C#CC(=O)NNC(=O)CCc1ccccc1C(=O)N[C@H](C)c1cccc2ccccc12` was tested, and the IC50 was 90 nM. Work on `Cc1ccc(N2CCN(C)CC2)cc1C(=O)NC1(c2cccc3ccccc23)CC1` yielded an IC50 of 20 nM. In the case of `Cc1ccc(N2CC3CN(C)CC3C2)cc1C(=O)NC1(c2cccc3ccccc23)CC1` (stereo not given), the IC50 is reported as 130 nM. Molecule `Cc1ccc(N2CCN(C(=N)N)CC2)cc1C(=O)NC1(c2cccc3ccccc23)CC1` has an IC50 of 140 nM. `Cc1ccc(N)cc1C(=O)NC1(c2cccc3ccccc23)CC1` was tested, and the IC50 was 180 nM. For `CC(=O)Nc1cccc(Nc2ccc(C)c(C(=O)NC3(c4cccc5ccccc45)CC3)c2)c1`, the IC50 was 500 nM.

What follows are molecules tested against T1, Replicase polyprotein 1ab (assay: Inhibition of SARS-CoV-2 Main protease extracted from Escherichia coli BL21 (DE3) cells measured for 60 mins by FRET based analysis).
With `Cc1ccc(NC[C@H]2CCCN2C)cc1C(=O)N[C@H](C)c1cccc2ccccc12` the IC50 was 1500 nM. `Cc1ccc(NC[C@H]2CCCCN2C)cc1C(=O)N[C@H](C)c1cccc2ccccc12` gave an IC50 of 1500 nM. For `Cc1ccc(NCC2CNC2)cc1C(=O)N[C@H](C)c1cccc2ccccc12`, the IC50 was 1000 nM. In the case of `Cc1ccc(NC[C@@]2(C)CCCN2)cc1C(=O)N[C@H](C)c1cccc2ccccc12`, the IC50 is reported as 1100 nM. `Cc1ccc(NC(=O)NCCN)cc1C(=O)N[C@H](C)c1cccc2ccccc12` was tested, and the IC50 was 1100 nM. With `Cc1ccc(NC(=O)CN2CCCC2)cc1C(=O)N[C@H](C)c1cccc2ccccc12` the IC50 was 1100 nM. `Cc1ccc(NC2CCN(C[C@@H]3CCCN3)CC2)cc1C(=O)N[C@H](C)c1cccc2ccccc12` was tested, and the IC50 was 1000 nM. In the case of `Cc1ccc(NC[C@]2(C)CCCN2)cc1C(=O)N[C@H](C)c1cccc2ccccc12`, the IC50 is reported as 1200 nM. In the case of `Cc1ccc(NC[C@@H](N)CNC[C@H]2CCCN2)cc1C(=O)N[C@H](C)c1cccc2ccccc12`, the IC50 is reported as 1100 nM. In the case of `Cc1ccc(NC[C@@H]2CCCCN2C)cc1C(=O)N[C@H](C)c1cccc2ccccc12`, the IC50 is reported as 1400 nM. Work on `Cc1ccc(NC(=O)[C@H]2CCCN2)cc1C(=O)N[C@H](C)c1cccc2ccccc12` yielded an IC50 of 1400 nM. `Cc1ccc(NC(=O)CNCC2CC2)cc1C(=O)N[C@H](C)c1cccc2ccccc12` showed an IC50 of 1300 nM. With `Cc1ccc(NCC2(C)CCN2)cc1C(=O)N[C@H](C)c1cccc2ccccc12` (mixture of isomers) the IC50 was 800 nM. For `Cc1ccc(NC(=O)C2CNCCN2)cc1C(=O)N[C@H](C)c1cccc2ccccc12` (mixture of isomers), the IC50 was 1500 nM. For `Cc1ccc(NCC2CN(C)CCN2)cc1C(=O)N[C@H](C)c1cccc2ccccc12` (mixture of isomers), the IC50 was 1500 nM. With `Cc1ccc(NC(=O)C2CN(C(C)C)CCN2)cc1C(=O)N[C@H](C)c1cccc2ccccc12` (mixture of isomers) the IC50 was 1400 nM.

These molecules were tested against T1, Replicase polyprotein 1ab (assay: Inhibition of SARS-CoV-2 papain-like protease (PLpro) by enzymatic assay).
With `CCn1ccc(-c2cc(-c3ccn(CC)n3)cc([C@@H](C)NC(=O)c3cc(OCCN(C)C)ccc3C)c2)n1` the IC50 was 200 nM. `CCn1ccc(-c2cc(-c3cnn(COC)c3)cc([C@@H](C)NC(=O)c3cc(OCCN(C)C)ccc3C)c2)n1` was tested, and the IC50 was 240 nM. `Cc1ccc(OCCN(C)C)cc1C(=O)N[C@H](C)c1cc(-c2cnn(C(F)F)c2)cc(-c2cnn(C(F)F)c2)c1` gave an IC50 of 170 nM. With `CCn1ccc(-c2cc(-c3cnn(C4COC4)c3)cc([C@@H](C)NC(=O)c3cc(OCCN(C)C)ccc3C)c2)n1` the IC50 was 260 nM. `COc1ncc(-c2cc(-c3cnc(OC)nc3)cc([C@@H](C)NC(=O)c3cc(OCCN(C)C)ccc3C)c2)cn1` was tested, and the IC50 was 1950 nM. Molecule `Cc1ccc(OCCN(C)C)cc1C(=O)N[C@H](C)c1cc(-c2cnn(CCO)c2)cc(-c2cnn(CCO)c2)c1` has an IC50 of 160 nM. `Cc1ccc(OCCN(C)C)cc1C(=O)N[C@H](C)c1cc(-c2ccc(O)cc2)cc(-c2ccc(O)cc2)c1` gave an IC50 of 160 nM. Work on `Cc1ccc(-c2cc(-c3ccc(C)s3)cc([C@@H](C)NC(=O)c3cc(OCCN(C)C)ccc3C)c2)s1` yielded an IC50 of 140 nM. In the case of `CCn1ccc(-c2cc(-c3cnn(CC(F)(F)F)c3)cc([C@@H](C)NC(=O)c3cc(OCCN(C)C)ccc3C)c2)n1`, the IC50 is reported as 270 nM. `COCCn1cc(-c2cc(-c3cnn(CCOC)c3)cc([C@@H](C)NC(=O)c3cc(OCCN(C)C)ccc3C)c2)cn1` was tested, and the IC50 was 180 nM. Molecule `CCn1ccc(-c2cc(-c3ccn(CC(F)F)n3)cc([C@@H](C)NC(=O)c3cc(OCCN(C)C)ccc3C)c2)n1` has an IC50 of 220 nM. `CCn1ccc(-c2cc(-c3cnn(C(F)F)c3)cc([C@@H](C)NC(=O)c3cc(OCCN(C)C)ccc3C)c2)n1` gave an IC50 of 320 nM. Work on `Cc1ccc(OCCN(C)C)cc1C(=O)N[C@H](C)c1cc(-c2c(C)noc2C)cc(-c2c(C)noc2C)c1` yielded an IC50 of 400 nM. Molecule `Cc1ccc(OCCN(C)C)cc1C(=O)N[C@H](C)c1cc(-c2ccoc2)cc(-c2ccoc2)c1` has an IC50 of 80 nM. `CCn1ccc(-c2cc(-c3cnn(C(C)C)c3)cc([C@@H](C)NC(=O)c3cc(OCCN(C)C)ccc3C)c2)n1` showed an IC50 of 200 nM. Molecule `Cc1ccc(OCCN(C)C)cc1C(=O)N[C@H](C)c1cc(-c2cncs2)cc(-c2cncs2)c1` has an IC50 of 100 nM. `Cc1ccc(OCCN(C)C)cc1C(=O)N[C@H](C)c1cc(-c2ccnn2C)cc(-c2ccnn2C)c1` showed an IC50 of 460 nM. With `CCn1ccc(-c2cc(-c3cnn(CC(F)F)c3)cc([C@@H](C)NC(=O)c3cc(OCCN(C)C)ccc3C)c2)n1` the IC50 was 230 nM. `CCn1nccc1-c1cc(-c2ccnn2CC)cc([C@@H](C)NC(=O)c2cc(OCCN(C)C)ccc2C)c1` was tested, and the IC50 was 440 nM. `Cc1ccc(OCCN(C)C)cc1C(=O)N[C@H](C)c1cc(-c2ccsc2)cc(-c2ccsc2)c1` was tested, and the IC50 was 100 nM. `Cc1ccc(OCCN(C)C)cc1C(=O)N[C@H](C)c1cc(-c2ccco2)cc(-c2ccco2)c1` showed an IC50 of 200 nM. With `CCn1ccc(-c2cc(-c3ccn(C(F)F)n3)cc([C@@H](C)NC(=O)c3cc(OCCN(C)C)ccc3C)c2)n1` the IC50 was 400 nM. `CCn1ccc(-c2cc(-c3ccn(C)n3)cc([C@@H](C)NC(=O)c3cc(OCCN(C)C)ccc3C)c2)n1` was tested, and the IC50 was 330 nM. Work on `Cc1ccc(OCCN(C)C)cc1C(=O)N[C@H](C)c1cc(-c2ccccc2)cc(-c2ccccc2)c1` yielded an IC50 of 103 nM.

What follows are molecules tested against T1, Replicase polyprotein 1ab (assay: Inhibition of SARS-CoV-2 Main protease using Dabcyl-KLSAVLQSGFRKM-Edans-NH2 as substrate incubated for 30 mins by FRET based enzymatic assay).
In the case of `Cc1ccc(OCCN(C)C)cc1C(=O)N[C@H](C)c1cc(-c2cnn(CCN(C)C)c2)cc(-c2cccs2)c1`, the IC50 is reported as 110 nM. `Cc1ccc(OCCN(C)C)cc1C(=O)N[C@H](C)c1cc(-c2cnn(CCO)c2)cc(-c2ccnn2C)c1` was tested, and the IC50 was 140 nM. In the case of `Cc1ccc(OCCN(C)C)cc1C(=O)N[C@H](C)c1cc(-c2cnn(C)c2)cc(-c2cnn(CC(N)=O)c2)c1`, the IC50 is reported as 70 nM. Molecule `Cc1ccc(OCCN(C)C)cc1C(=O)N[C@H](C)c1cc(-c2cnn(CCO)c2)cc(-c2cccs2)c1` has an IC50 of 110 nM. `Cc1ccc(OCCN(C)C)cc1C(=O)N[C@H](C)c1cc(-c2cnn(CCO)c2)cc(-c2ccc(CN3CCCC3)s2)c1` gave an IC50 of 70 nM. `Cc1ccc(OCCN(C)C)cc1C(=O)N[C@H](C)c1cc(-c2cnn(CC3CCOCC3)c2)cc(-c2ccn(C)n2)c1` showed an IC50 of 80 nM. For `Cc1ccc(OCCN(C)C)cc1C(=O)N[C@H](C)c1cc(-c2ccc3cnn(C)c3c2)cc(-c2cnn(C)c2)c1`, the IC50 was 130 nM. In the case of `Cc1ccc(OCCN(C)C)cc1C(=O)N[C@H](C)c1cc(-c2cnn(C(C)C)c2)cc(-c2cnn(C(F)F)c2)c1`, the IC50 is reported as 160 nM. Work on `Cc1ccc(OCCN(C)C)cc1C(=O)N[C@H](C)c1cc(-c2cnn(CC(N)=O)c2)cc(-c2cccs2)c1` yielded an IC50 of 80 nM. `Cc1ccc(OCCN(C)C)cc1C(=O)N[C@H](C)c1cc(-c2cnn(C)c2)cc(-c2cnn(CC3CCOCC3)c2)c1` was tested, and the IC50 was 70 nM. `Cc1ccc(OCCN(C)C)cc1C(=O)N[C@H](C)c1cc(-c2ccn(C)n2)cc(-c2ccn(C3CC3)n2)c1` gave an IC50 of 120 nM. In the case of `Cc1ccc(OCCN(C)C)cc1C(=O)N[C@H](C)c1cc(-c2ccc(N3CCOCC3)nc2)cc(-c2cnn(C)c2)c1`, the IC50 is reported as 80 nM. `COCCn1cc(-c2cc(-c3cnn(CC(N)=O)c3)cc([C@@H](C)NC(=O)c3cc(OCCN(C)C)ccc3C)c2)cn1` showed an IC50 of 90 nM. `Cc1ccc(OCCN(C)C)cc1C(=O)N[C@H](C)c1cc(-c2cn[nH]c2)cc(-c2cccs2)c1` was tested, and the IC50 was 80 nM. With `Cc1ccc(OCCN(C)C)cc1C(=O)N[C@H](C)c1cc(-c2cnn(CC(F)(F)F)c2)cc(-c2cccs2)c1` the IC50 was 70 nM. With `COCCn1cc(-c2cc(-c3cnn(CCO)c3)cc([C@@H](C)NC(=O)c3cc(OCCN(C)C)ccc3C)c2)cn1` the IC50 was 100 nM. `Cc1ccc(OCCN(C)C)cc1C(=O)N[C@H](C)c1cc(-c2cnn(C)c2)cc(-c2ccc(CN3CCOCC3)o2)c1` gave an IC50 of 120 nM. For `Cc1ccc(OCCN(C)C)cc1C(=O)N[C@H](C)c1cc(-c2cnn(C(F)F)c2)cc(-c2cnn(C3CC3)c2)c1`, the IC50 was 90 nM. In the case of `CC(=O)n1cc(-c2cc(-c3cnn(C)c3)cc([C@@H](C)NC(=O)c3cc(OCCN(C)C)ccc3C)c2)cn1`, the IC50 is reported as 110 nM. `Cc1ccc(OCCN(C)C)cc1C(=O)N[C@H](C)c1cc(-c2ccc(N3CCOCC3)nc2)cc(-c2cccs2)c1` showed an IC50 of 90 nM. In the case of `COCCn1cc(-c2cc(-c3cnn(C(F)F)c3)cc([C@@H](C)NC(=O)c3cc(OCCN(C)C)ccc3C)c2)cn1`, the IC50 is reported as 110 nM. For `Cc1ccc(OCCN(C)C)cc1C(=O)N[C@H](C)c1cc(-c2cnn(CCO)c2)cc(-c2cnn(CCN(C)C)c2)c1`, the IC50 was 140 nM. `COCCn1cc(-c2cc(-c3cnn(CC(F)F)c3)cc([C@@H](C)NC(=O)c3cc(OCCN(C)C)ccc3C)c2)cn1` was tested, and the IC50 was 200 nM. In the case of `COCCn1cc(-c2cc(-c3cncs3)cc([C@@H](C)NC(=O)c3cc(OCCN(C)C)ccc3C)c2)cn1`, the IC50 is reported as 110 nM. With `Cc1ccc(OCCN(C)C)cc1C(=O)N[C@H](C)c1cc(-c2cnn(C(C)C)c2)cc(-c2ccn(C)n2)c1` the IC50 was 110 nM. Work on `Cc1ccc(OCCN(C)C)cc1C(=O)N[C@H](C)c1cc(-c2ccn(C)n2)cc(-c2ccn(C)n2)c1` yielded an IC50 of 140 nM. `COCCn1cc(-c2cc(-c3cccs3)cc([C@@H](C)NC(=O)c3cc(OCCN(C)C)ccc3C)c2)cn1` was tested, and the IC50 was 110 nM. Molecule `Cc1ccc(OCCN(C)C)cc1C(=O)N[C@H](C)c1cc(-c2cnn(C(F)F)c2)cc(-c2ccn(C)n2)c1` has an IC50 of 90 nM. `Cc1ccc(OCCN(C)C)cc1C(=O)N[C@H](C)c1cc(-c2cnn(C(F)F)c2)cc(-c2cccs2)c1` showed an IC50 of 70 nM. Work on `Cc1ccc(OCCN(C)C)cc1C(=O)N[C@H](C)c1cc(-c2cnn(C)c2)cc(-c2cnn(CCO)c2)c1` yielded an IC50 of 90 nM. In the case of `COCCn1cc(-c2cc(-c3ccn(C)n3)cc([C@@H](C)NC(=O)c3cc(OCCN(C)C)ccc3C)c2)cn1`, the IC50 is reported as 90 nM. Molecule `Cc1ccc(OCCN(C)C)cc1C(=O)N[C@H](C)c1cc(-c2cnn(CCO)c2)cc(-c2cnn(C(F)F)c2)c1` has an IC50 of 90 nM. With `Cc1ccc(OCCN(C)C)cc1C(=O)N[C@H](C)c1cc(-c2cnn(CCN3CCOCC3)c2)cc(-c2cccs2)c1` the IC50 was 60 nM. For `Cc1ccc(OCCN(C)C)cc1C(=O)N[C@H](C)c1cc(-c2cnn(C)c2)cc(-c2cccs2)c1`, the IC50 was 150 nM.
